According to patent USRE33375E, “Treatments employing drug-containing matrices for introduction into cellular lesion areas” (Matrix Pharmaceuticals, Inc., priority 1988, dated 1990):
Structures can show the parent of a compound that is named as a salt. Marks after values point to notes of the source that are not given here.

Tests used:
[1] = system: experimental murine fibrosarcoma (RIF-1 cells); experiment: Regrowth delay of the treated transplantable murine fibrosarcoma; type: in vivo, murine; female C3H mice; details: for Regrowth Delay: time to 4 times initial treatment volume (150 mm^3), Mean ± S.E.
Experimental: times their initial treatment volume (150 mm^3). Increasing values
indicate enhanced therapeutic effect.
When the tumors reached a volume of 150 mm^3, the mice were assigned randomly to the following groups (4-6 mice per group): (1) untreated controls; (2) 5-FU (100 mg/kg), i.p., 0.1 ml/mouse; (3) 5-FU (100 mg/kg), i.t., 0.1 ml/tumor; (4) 5-FU-BC (100 mg 5-FU/kg dispersed in BC (18 mg/ml)), i.t., 0.1 ml/tumor; 5-FU-EPI-BC (100 mg 5-FU/kg) 5 mg EPI/kg dispersed in BC (18 mg/ml), i.t., 0.1 ml/tumor.
In the next study doxorubicin-HCl (ADM) (Adriamycin) was studied using the above-described protocol. The adriamycin in distilled water (4.45 mg/ml) was mixed with 36 mg/ml bovine collagen (BC) 1:1 to yield a composition ratio of 2.25 mg adriamycin:18 mg BC/ml.
^2 Tumor Regrowth Delay (RD). Time (days) required for tumors to grow
to 3 × its original treatment volume (~150 mm^3).
Increasing RD indicate increased tumor cell killing.

[2] = system: uninjected contralateral fibrosarcoma (RIF-1 cells); experiment: Regrowth delay of the uninjected contralateral fibrosarcoma; type: in vivo, murine; female C3H mice; details: for Regrowth Delay, uninjected contra: time to 4 times initial volume, Mean ± S.E.
Experimental: A transplantable experimental murine fibrosarcoma (2×10^5 RIF-1 cells) was grown intradermally in the flank of 5 month old female C3H mice (Bantin and Kingman, Fremont, Calif.). Cis-diamine dichloroplatinum (II) (cis-Pt) (Sigma Chemical Co., St. Louis, Mo.) was dissolved in sterile saline at concentrations of 0.8, 1.6 and 3.2 mg/ml and mixed 1:1 with bovine collagen (BC) (36 mg/ml) in PBS 20 mM phosphate, 140 mM NaCl (Collagen Corp., Palo Alto, Calif.). Doses of 2, 4 and 8 mg/kg host of cis-Pt were delivered in 0.1 ml of the collagenous drug mixture to the center of the tumor growing in the flank (intratumorally, i.t.), and the tumor measured. The growth of a second uninjected tumor on the opposing flank of the same mouse was also measured. In addition, cis-Pt dissolved in PBS without collagen was administered intraperitoneally (i.p.) to other tumor-bearing mice (4 tumors/group) to monitor the effects on tumor growth of the drug without collagen. Furthermore, the effect of bovine collagen on tumor growth was also studied by injection of 0.1 ml of collagen, (18 mg/ml) into the experimental fibrosarcomas, as previously described. The growth of the tumors was monitored three times per week by caliper measurements of three perpendicular diameters of the tumor and calculating tumor volume from the formula
*Regrowth Delay determined as the time (days) for tumors to grow to four
times their initial treatment volume (150 mm^3).
(§1) In the next study 5-fluorouracil (5-FU) (Sigma Chem. Co., St. Louis, Mo.) with and without epinephrine (Sigma) suspended in saline by sonication (60 mg/ml) and mixed 1:1 with bovine collagen (BC) (Collagen Corp., Palo Alto, Calif.) (36 mg/ml) or normal saline. The subjects were 25 gm 12 week-old female C3H/He mice (Bantin and Kingman, Fremont, Calif.) bearing the transplatable experimental murine fibrosarcoma propagated intradermally as previously described.
(§2) The adriamycin in distilled water (4.45 mg/ml) was mixed with 36 mg/ml bovine collagen (BC) 1:1 to yield a composition ratio of 2.25 mg adriamycin:18 mg BC/ml.
^3 Contralateral Tumor RD (CRD). Time (days) required for untreated
contralateral tumors to grow to 3× its original treatment volume
(~150 mm^3). Decreasing RD indicate enhanced regionalization of
drug injected when compared to RD.
(§3) In the next study vincristine (VCR) was dissolved in saline (0.6 mg/ml) by sonication and mixed 1:1 with bovine collagen (36 mg/ml). Otherwise, the procedure was the same.
In the next study a combination of bleomycin sulfate (Sigma Chemical Co., St. Louis, Mo.) (15 mg/kg) and epinephrine (5 mg/kg) employed in a bovine collagen composition were evaluated for antitumor effect in the transplantable experimental murine fibrosarcoma model previously described. […]

skin overlying the tumor = experiment: Skin reaction of the skin overlying the tumor
Experimental: (§4) On day four post-treatment, white blood cells (wbc) were counted by sampling blood from the tail, dilution in Turk's solution and counting in a hemocytometer. On day eight post-treatment, skin reaction is overlying tissue was graded for untoward response.
(§5) The skin reaction is scored as follows: […]
as §5
(§6) In another experiment the curative potential of drug matrix formulations was evaluated in the experimental murine fibrosarcoma model. Briefly, female C3H/He mice bearing a single experimental tumor produced as previously described were treated at weekly intervals with formulations containing 5-fluorouracil (50 mg/kg); bovine collagen BC (Collagen Corp., Palo Alto, Calif.); epinephrine (Sigma Chemical Co., St. Louis, Mo.); and PBS. WBC's were determined on Day 4 following each treatment cycle and skin reaction on […] after each treatment cycle. Treatment was discontinued for all grops when 3 of 4 experiment groups reach 4×initial tumor volume. When tumors reached a volume of 150 mm^3 the mice were randomly assigned to the following groups:
(§7) In another experiment the influence of matrix composition on antitumor activity of 5-fluorouracil (100 mg/kg) was evaluated in the experimental murine fibrosarcoma model previously described. 5-FU (Sigma Chemical Co., St. Louis, Mo.) was combined as described below with bovine collagen BC (Collagen Corp., Palo Alto, Calif.); bovin fibronogen (95% clottable, Sigma), bovine thrombin (2000NIH units/mg, Sigma) and Ringer's Solution For Injection (RFI, Abbott Labs., North Chicago, Ill.). When tumors reached a volume of 150 mm^3 the mice (Bantin and Kingman, Fremont, Calif.) were assigned randomly to the following groups, (3-4 mice/group):
(§8) 3. 5-FU-Fibrinogen: 5-FU (36 mg/ml) combined 1:1 with the fibrinogen preparation described in 2 above, 0.1 ml i.t.
(§9) 4. 5-FU-BC-Fibrinogen: 5-FU (36 mg/ml) combined 1:1 with a fibrinogen-BC preparation consisting of fibrinogen (30 mg/ml); BC (36 mg/ml) dispersed in RFI containing 1 NIH unit of thrombin activity/ml, 0.1 ml i.t.
In the next experiment 5-fluorouracil-matrix implant in combination with X-rays was evaluated. Single RIF-1 tumors were grown on the back of female C3H mice (12-16 weeks) (Bantin and Kingman, Fremont, Calif.) as previously described. When the tumors reached volumes of 150 mm^3, they were divided into the following groups, (4-6 mice/group):
(§10) Tumor bearing mice were irradiated in lead jigs exposing only the tumor and overlying skin with a 250 kVp X-ray machine at a dose rate of 120 rad/min. The tumors of the treated and untreated mice were measured three times per week and assayed for regrowth delay and skin reactions as previously described.

white blood cells = experiment: White blood cell count in tumor-bearing mice
Experimental: as §1, §4, §2
^4 White Blood Cells measured on Day 4 post injection by sampling fro
the tail of treatment mice.
as §3
In the next study a combination of bleomycin sulfate (Sigma Chemical Co., St. Louis, Mo.) (15 mg/kg) and epinephrine (5 mg/kg) employed in a bovine collagen composition were evaluated for antitumor effect in the transplantable experimental murine fibrosarcoma model previously described.
as §6
(§11) 2. 5-FU-PBS i.p.; 5-FU (23 mg/ml) was combined 1:1 with PBS; 0.1 ml injected/mouse i.p.
(§12) 3. 5-FU-PBS i.t.; 5-FU (23 mg/ml) was combined 1:1 with PBS; 0.1 ml injected/tumor i.t.
(§13) 4. 5-FU-BC i.t.; 5-FU (23 mg/ml) was combined 1:1 with bovine collagen (36 mg/ml); 0.1 ml injected i.t.
as §7, §8, §9

[3] = Acute animal toxicity / survival after injection; details: 15 mg/kg
Experimental: as §1, §2

RIF-1 tumor [4] = experiment: RIF-1 tumor regrowth delay, cis-DDP-matrix implant in combination with hyperthermia; type: in vivo, female C3H mice; details: cis-DDP 6 mg/Kg, i.p.
Experimental: In the next study cis-DDP-matrix (DDP=cis-Pt) implant in combination with hyperthermia was evaluated.
2. Hyperthermia (43° C., 30 min) alone
3. Hyperthermia+collagen-matrix (CM)+epinephrine (epi) (2 mg/Kg)
4. cis-DDP (6 mg/Kg) i.p.
6. cis-DDP (i.p.) 30 min before hyperthermia
7. cis-DDP-CM-epi (i.t.) 30 min before hyperthermia.
The tumor bearing mice were heated in a precision water bath with 30 gauge thermistor thermometry (±0.2° C.).

RIF-1 tumor [5] = experiment: RIF-1 tumor regrowth delay, 5-fluorouracil-matrix implant in combination with X-rays; type: in vivo, female C3H mice; details: 5-FU 75 mg/Kg, i.p.
Experimental: In the next experiment 5-fluorouracil-matrix implant in combination with X-rays was evaluated. […] When the tumors reached volumes of 150 mm^3, they were divided into the following groups, (4-6 mice/group):
2. X-rays (1000 rad.) alone
3. Collagen-matrix (CM) i.t. 5 min. before X-rays
4. 5-Fluorouracil (5-FU) (75 mg/Kg) i.p.
6. 5-FU i.p. 5 min before X-rays
as §10

[6] = system: experimental murine fibrosarcoma; experiment: Tumor regrowth delay on weekly treatment (curative potential); type: in vivo, murine; female C3H/He mice
Experimental: as §6, §11, §12, §13

[7] = BLM 15 mg/kg, i.p., mean ± S.E.
[8] = BLM 15 mg/kg, i.t. (± EPI 5 mg/kg), mean ± S.E.
[9] = 5-FU 50 mg/kg on Days 0, 8 and 16, i.p.
[10] = 5-FU 50 mg/kg on Days 0, 8 and 16, i.t. (± Epinephrine 5 mg/kg)
[11] = 5-FU 100 mg/kg, i.p., mean ± S.E.
[12] = 5-FU 100 mg/kg, i.t. (± EPI 5 mg/kg), mean ± S.E.

bleomycin sulfate [BLM]
Tumor Regrowth Delay [1, 7]: 7.5 ± 0.9 days | Tumor Regrowth Delay [1, 8]: 8.9 ± 0.6 days | Untreated Contralateral Regrowth Delay [2, 7]: 7.5 ± 0.9 days | Untreated Contralateral Regrowth Delay [2, 8]: 7.0 ± 0.7 days

COc1cccc2c1C(=O)c1c(O)c3c(c(O)c1C2=O)C[C@@](O)(C(=O)CO)C[C@@H]3O[C@H]1C[C@H](N)[C@H](O)[C@H](C)O1 [Free ADM, doxorubicin-HCl]
Skin Reaction (skin overlying the tumor; ADM 15 mg/kg, i.p., Day 8 post injection, 0 = no effect, 1 = superficial inflammation, 2 = scab, 3 = ulcer): 1.5 ± 0.5 | Skin Reaction (skin overlying the tumor; ADM 15 mg/kg, i.t., Day 8 post injection, 0 = no effect, 1 = superficial inflammation, 2 = scab, 3 = ulcer): 2.0 | Tumor Regrowth Delay, Treated ([1]; ADM 15 mg/kg, i.t., time to 3 × original treatment volume (~150 mm^3)): 13.7 ± 1.7 days | White Blood Cells/mm^3 (white blood cells; ADM 15 mg/kg, i.t., Day 4 post injection): 4.1 ± 0.69 Cells/mm^3 (× 10^3) | Tumor Regrowth Delay, Contralateral ([2]; ADM 15 mg/kg, i.t., untreated contralateral tumor, time to 3× original treatment volume (~150 mm^3)): 8.3 ± 0.75 days | toxicity of intratumoral injection ([3]; intratumoral injection): non-toxic | survival ([3]; mouse, in vivo): 100% | mortality ([3]; mouse, in vivo, ip): 75% | survival ([3]; mouse, in vivo, ip): 25%

CC[C@]1(O)C[C@H]2CN(CCc3c([nH]c4ccccc34)[C@@](C(=O)OC)(c3cc4c(cc3OC)N(C=O)[C@H]3[C@@](O)(C(=O)OC)[C@H](OC(C)=O)[C@]5(CC)C=CCN6CC[C@]43[C@@H]65)C2)C1 [VCR, vincristine]
Skin Reaction (skin overlying the tumor; VCR 2 mg/kg, i.p., scored as in the preceding studies (0-3)): 0.6 ± 0.4 | Tumor Regrowth Delay ([1]; VCR 2 mg/kg, i.p.): 10.6 ± 2.0 days | White Blood Cells/mm^3 (white blood cells; VCR 2 mg/kg, i.p.): 7.4 ± 1.3 Cells/mm^3 (× 10^3) | Untreated Contralateral Regrowth Delay ([2]; VCR 2 mg/kg, i.p.): 10.6 ± 2.0 days

N.N.[Cl][Pt][Cl] [cis-Pt, Cis-diamine dichloroplatinum (II)]
Regrowth Delay ([1]; i.p., 2 mg/kg cis-Pt): 7.2 ± 0.1 days | Regrowth Delay ([1]; i.p., 4 mg/kg cis-Pt): 9.1 ± 0.7 days | Regrowth Delay ([1]; i.p., 8 mg/kg cis-Pt): 9.9 ± 1.0 days | Regrowth Delay ([1]; i.t., 2 mg/kg cis-Pt, injected tumor): 9.5 ± 0.5 days | Regrowth Delay ([1]; i.t., 4 mg/kg cis-Pt, injected tumor): 10.3 ± 0.7 days | Regrowth Delay ([1]; i.t., 8 mg/kg cis-Pt, injected tumor): 11.5 ± 0.04 days | Regrowth Delay, uninjected contra ([2]; opposing tumor injected i.t. with 2 mg/kg cis-Pt): 9.3 ± 1.2 days | Regrowth Delay, uninjected contra ([2]; opposing tumor injected i.t. with 4 mg/kg cis-Pt): 8.9 ± 0.7 days | Regrowth Delay, uninjected contra ([2]; opposing tumor injected i.t. with 8 mg/kg cis-Pt): 9.9 ± 0.9 days | Tumor Regrowth Delay (2×) (RIF-1 tumor [4]; 30 min before hyperthermia (43° C., 30 min)): 8.9 ± 0.8 days | Tumor Regrowth Delay (2×) (RIF-1 tumor [4]; no hyperthermia): 6.5 ± 1.5 days

O=c1[nH]cc(F)c(=O)[nH]1 [5-FU, 5-fluorouracil]
Skin Reaction D-8 (skin overlying the tumor; [9]): 1.2 ± 1.1 | Skin Reaction D-8 (skin overlying the tumor; [10]): 1.0 ± 0.6 | Skin Reaction (skin overlying the tumor; 5-FU 75 mg/Kg, i.p. + X-rays (1000 rad), scored as previously described (0-3)): 2 | Skin Reaction (skin overlying the tumor; 5-FU 75 mg/Kg, i.p., no X-rays, scored as previously described (0-3)): 2 | Skin Reaction (skin overlying the tumor; 5-FU 100 mg/kg, i.p., Day 8, 0 = no effect, 1 = superficial inflammation, 2 = scab, 3 = ulcer): 0.7 ± 0.4 | Skin Reaction (skin overlying the tumor; 5-FU 100 mg/kg, i.t. (± EPI 5 mg/kg), Day 8, 0 = no effect, 1 = superficial inflammation, 2 = scab, 3 = ulcer): 0 | 2× Tumor Regrowth Delay (RIF-1 tumor [5]; 5 min before X-rays (1000 rad)): 12.6 ± 2.8 days | 2× Tumor Regrowth Delay (RIF-1 tumor [5]; no X-rays): 8.5 ± 1.1 days | Tumor Regrowth Delay [1, 11]: 13.1 ± 1.4 days | Tumor Regrowth Delay [1, 12]: 14.5 ± 0.9 days | Tumor Regrowth 4 × [6, 9]: 10.3 ± 1.3 days | Tumor Regrowth 4 × [6, 10]: 14.9 ± 3.8 days | WBC D-12 (white blood cells; [9]): 109 ± 28 | WBC D-12 (white blood cells; [10]): 107 ± 25 | White Blood Cells/mm^3 (white blood cells; 5-FU 100 mg/kg, i.p., day four post-treatment): 4.5 ± 0.6 Cells/mm^3 (× 10^3) | White Blood Cells/mm^3 (white blood cells; 5-FU 100 mg/kg, i.t. (± EPI 5 mg/kg), day four post-treatment): 3.5 ± 0.5 Cells/mm^3 (× 10^3) | Untreated Contralateral Regrowth Delay [2, 11]: 13.1 ± 1.4 days | Untreated Contralateral Regrowth Delay [2, 12]: 11.1 ± 0.6 days
